# Key:
# [1] = system: patients with PH, WHO functional class III or IV; assay: Expanded Study: 16-week placebo-controlled study in 213 PH patients; type: in vivo, human
# Description: On the basis of the results of the above study 2, the clinical study is expanded with additional 213 PH patients for at least 16 weeks. The study is conducted with patients with PH, WHO functional class III or IV. Two hundred thirteen patients are randomized to receive either 200 mg bid or 400 mg bid of thalidomide or placebo in a 1:1:1 ratio. The primary endpoint, a 6-minute walk distance, is evaluated at 16 weeks. The treated patients walk 36.4 meters further at 16 weeks compared to a 7.8 meter reduction in walk distance in the placebo group, for a treatment effect of 44.2 meters. Clinical worsening, defined by death, premature withdrawal from study, hospitalization for worsening of PH or institution of epoprostenol, occur in 37% of placebo-treated patients, compared with 11% of the patients treated with the compound of the invention.
# [2] = system: patients with PH (NYHA functional class III); assay: Clinical Study 2: 12-week placebo-controlled study in patients with PH; type: in vivo, human
# Description: In one embodiment of the invention, thalidomide is administered in a single or divided daily doses in an amount of from about 200 to about 800 mg/day. The compound is administered to patients with PH for 12 weeks, who are subsequently evaluated for a decline in walk distance, dyspnea score, functional class, pulmonary hemodynamic response. The first study enrolls 32 patients with PH. Patients are all in modified New York Heart Association functional class III at the onset of the study. Patents are maximally treated and are stable on conventional therapy, including calcium channel antagonists and diuretics. Two thirds of patients receive 400 mg of thalidomide for four weeks followed by 800 mg of the compound for eight weeks. One third of patients receive placebo. The primary efficacy endpoint is a 6-minute walk distance. Patients receiving the compound of the invention walk an average of 70 meters farther after 12 weeks while placebo patients have a decline in walk distance. In addition, the treated patients have improvements in dyspnea score and functional class compared with placebo patients. Pulmonary hemodynamic measurements reveal decreases in pulmonary arterial pressure and pulmonary vascular resistance, and increase in cardiac output after 12 weeks of the treatment, compared with worsening of pulmonary hemodynamics in placebo patients. All these changes in treated patients are highly significant compared with placebo.
# [3] = 12 weeks, compared with placebo patients
# [4] = after 12 weeks of treatment, compared with placebo
compound,measurement,setting,value
"O=C1CCC(N2C(=O)c3ccccc3C2=O)C(=O)N1 (racemic) [thalidomide, 2-(2,6-dioxo-3-piperidinyl)-1H-isoindole-1,3(2H)-dione]","6-minute walk distance, increase","[1]; at 16 weeks, 200 mg bid or 400 mg bid",36.4 meters
same,"6-minute walk distance, treatment effect versus placebo","[1]; at 16 weeks, treated minus placebo (7.8 meter reduction)",44.2 meters
same,"clinical worsening (death, premature withdrawal, hospitalization for worsening of PH or institution of epoprostenol), share of patients","[1]; treated patients, 37% in placebo-treated patients",11%
same,functional class,[1]; treated versus placebo patients,improved significantly more
same,dyspnea score,[2]; [3],improvements
same,functional class,[2]; [3],improvements
same,cardiac output,[2]; [4],increase
same,pulmonary arterial pressure,[2]; [4],decreases
same,pulmonary vascular resistance,[2]; [4],decreases
same,"6-minute walk distance, average increase","[2]; after 12 weeks, 400 mg for four weeks then 800 mg for eight weeks, PH patients",70 meters
